# Reference: PubChem BioAssay AID1996
# Details: buffer; pH 7.4; 200.0 µM
row,solubility kinetic [µg/mL],Structure (SMILES)
1,8.1,Cc1c(C#N)c(NC(=O)C(C)C)n(Cc2ccccc2)c1C
2,> 47.8,CC(=O)N(C)c1ccc(N=Cc2c(O)ccc3ccccc23)cc1
3,> 37.1,Cc1cc(SC(C)C(=O)O)nc2ccccc12 (centres undefined)
4,> 50.3,CC(=O)Nc1ccc(C(=O)COC(=O)Cc2ccsc2)c(F)c1
5,40.3,Cc1ccc(S(=O)(=O)NCC(=O)OCc2ccccc2)cc1
6,38.2,COc1ccccc1N/C(N)=N/c1nc(C)cc(C)n1
7,34.8,Cc1ccc(NC(=O)NCc2nc3ccccc3n2C)cc1
8,2.8,FCCCOc1ccc(-c2nccc(-c3ccccn3)n2)cc1
9,1.1,COc1ccccc1C(=O)N/C(=N/c1nc(C)cc(C)n1)Nc1ccccc1
10,14.2,O=C(NCCc1ccc([N+](=O)[O-])cc1)c1ccccc1
11,< 0.7,COc1ccccc1C1CCN(Cc2cccc3ccccc23)CC1
12,0.4,COc1ccc(NC(=O)Nc2cccc3ccccc23)cc1OC
13,38.3,CC1CCCN(C(=O)Cc2cccc3ccccc23)C1 (centres undefined)
14,> 38.3,CCc1ccccc1NC(=O)NCc1ccccn1
15,2.1,NS(=O)(=O)c1ccc(NC(=S)N2CCc3ccccc32)cc1
16,37.4,COc1ccc(CCCc2nc3ccccc3[nH]2)cc1
17,34,COc1ccc(O)c(CNc2ccccc2F)c1
18,> 46.1,CCN(CC)C(=O)n1c(Cc2ccccc2)nc2ccccc21
19,0.4,Cc1onc(-c2ccccc2)c1CNC(=O)Nc1ccc(C(F)(F)F)cc1
20,> 54.7,Cc1ccc(S(=O)(=O)Nc2cccc(Cl)c2)cc1NC(=O)C1CC1
21,1.5,COc1cccc(CNC(=O)CC2Sc3ccccc3NC2=O)c1 (centres undefined)
22,1.8,CCc1ccc(CCOc2ccc(CC3SC(=O)NC3=O)cc2)nc1.Cl (centres undefined)
23,1,COc1ccc(C(=O)Nc2ccc(NC(=O)c3ccccc3F)cn2)cc1
24,1.1,O=C1NC(=S)S/C1=C\c1ccc2ccccc2c1
25,> 41,Cc1ccc(C(C)NC(=O)Cc2cccs2)cc1C (centres undefined)
26,38.6,CC(=O)Nc1ccc(OS(=O)(=O)c2ccc(Cl)cc2)cc1
27,4.9,CCOc1ccc(N2C(=O)CC(Cc3ccccc3OC)C2=O)cc1 (centres undefined)
28,17.3,COc1ccc(CCC(C)NCc2ccc(Cl)c(Cl)c2)cc1 (centres undefined)

row,solubility kinetic [µg/mL],Structure (SMILES)
1,40.8,Cc1cccc(C(=O)NCC(=O)NC(C)CCc2ccccc2)c1 (centres undefined)
2,> 47.6,O=[N+]([O-])c1ccc(CN2C=NS(=O)(=O)c3ccccc32)cc1
3,13.6,COc1ccc2c(c1)c1ncn(Cc3ccccn3)c(=O)c1n2C
4,8.8,CN(C(=O)c1ccc(COc2ccccc2Cl)o1)c1ccccc1
5,37.3,Cc1cc(NC(=O)CC(C)C)c(=O)n(Cc2ccccc2F)c1
6,> 39.9,CC(=O)c1ccc(/C=C/c2nc3ccccc3n2C)o1
7,0.8,CCOc1ccc(-c2cnc3ccccc3n2)cc1
8,2.8,O=C(NC(=S)Nc1ccc2oc(=O)ccc2c1)c1ccco1
9,< 0.4,Cc1cccc2cc3ccccc3nc12
10,7.1,O=C(C1CC1)N1c2ccccc2Sc2ccccc21
11,< 0.7,CC(C)(C)c1ccc(O)c(N=Cc2c(O)ccc3ccccc23)c1
12,37.5,O=C1c2ccccc2NC(c2ccc(Br)s2)N1O (centres undefined)
13,> 50.1,Cc1cccc(OCC(O)CN2CCc3ccccc3C2)c1.Cl (centres undefined)
14,4.6,Cc1[nH]c2ccccc2c1C(=O)COC(=O)c1ccccc1O
15,28.3,O=[N+]([O-])c1cccnc1Oc1ccc(F)cc1F
16,36.1,O=C(COC(=O)c1ccc(Cl)nc1)NC1CCCc2ccccc21 (centres undefined)
17,10.4,O=C(COC(=O)c1ccc2ncsc2c1)NCc1ccccc1Cl
18,11.1,O=C(Nc1cccc(S(=O)(=O)Nc2ccccc2F)c1)c1ccco1
19,> 47.3,CCN1CCCC1CNC(=O)c1[nH]c2ccc(OC)cc2c1C (centres undefined)
20,> 46.7,COc1ccc(S(=O)(=O)NCCc2ccco2)cc1OC
21,> 52.8,Cc1ccc(S(=O)(=O)N[C@@H](Cc2ccccc2)C(=O)CCl)cc1
22,59.9,COc1ccc(OC)c(CN2CCN(C(=O)CNC(=O)c3ccccc3F)CC2)c1
23,46.5,O=C(COC(=O)c1ccc(O)cc1O)Nc1ccc(Cl)cn1
24,< 0.3,Cc1ccc(NC(=O)c2cc3ccccc3oc2=N)cc1
25,> 45.8,O=C(COC(=O)Cc1ccccc1F)Nc1cccc(F)c1
26,6.3,O=C(NCCOc1ccc(Cl)cc1)c1ccc2c(c1)OCCO2
27,11.9,CN(Cc1c(F)cccc1Cl)C(=O)CCc1c[nH]c2ccccc12

# The remaining lines, values behind:
row,Structure (SMILES),solubility kinetic [µg/mL]
1,CC1(C)OC(=O)C(=NNc2ccccc2C(=O)O)C(=O)O1,> 43.8
2,C[C@H](NC(=O)c1ccco1)C(=O)Nc1ccc(C#N)cc1,> 42.5
3,O=S(=O)(NCCN1CCCC1)c1ccc(C(F)(F)F)cc1,> 48.4
4,CCOc1ccc(CCNC(=O)COC(=O)c2ccc[nH]c2=O)cc1OCC,> 58.3
5,COc1cc(OC)c(C(=O)OCC(=O)Nc2ccc(S(=O)(=O)N3CCOCC3)cc2)cc1OC,9.6
6,COc1cccc(OC)c1OCCN1CCCC1,32.4
7,Cc1ccc(N2CCN(C(=O)c3cccs3)CC2)c(C)c1,2.3
8,CN(C(=O)CSc1nnc(-c2ccc(F)cc2)n1C)C1CCS(=O)(=O)C1 (centres undefined),> 59.8
9,O=C(COC(=O)CNC(=O)c1cc(Cl)cc([N+](=O)[O-])c1)NC(=O)NCc1ccco1,61.7
10,Cc1c(C(=O)N2CCOCC2)cc(C(C)(C)C)n1-c1ccccc1,45.3
11,Clc1ccc(C2CSc3c4ncnc-4ncn32)cc1 (centres undefined),33.9
12,C=CCC(=O)N1CCCC(CO)(Cc2ccc(F)cc2F)C1 (centres undefined),41.8
13,O=C(Cc1ccc(Cl)cc1)NCCc1cnc[nH]1,> 39.6
14,CC(NC(=O)c1cnccn1)c1ccc(S(N)(=O)=O)cc1 (centres undefined),> 46
15,COC(=O)c1sc(NC(=O)c2c(-c3ccccc3)noc2C)nc1C,0.8
16,CCCC#CCN1CCN(C23CC4CC(CC(C4)C2)C3)CC1,42.6
17,Cc1ccc(S(=O)(=O)N(C)C)cc1NC(=O)C1CCCCC1,> 48.7
18,CCC(CO)n1c(=S)[nH]c2cc(OC)c(OC)cc2c1=O (centres undefined),> 46.6
19,CCOc1ncccc1C(=O)Nc1ccc(S(=O)(=O)Nc2cc(C)nc(C)n2)cc1,> 64.1
20,Cc1cc(Oc2ccc(OCC(N)=O)nn2)nc(Cl)n1,> 44.4
21,O=C(CNC(=O)c1ccc(Br)o1)NCC1CCCO1 (centres undefined),> 49.7
22,CN1CCC(N(C)S(=O)(=O)c2ccc(NC(=O)c3ccc(S(=O)(=O)N(C)C)cc3)cc2)CC1,> 74.2

row,Structure (SMILES),solubility kinetic [µg/mL]
1,O=C(CN1CCCCC1)Nc1ccc(C(F)(F)F)cc1Cl,2.5
2,Cc1ccc2c(CC(=O)NCC(C)(C)N3CCOCC3)coc2c1,> 49.6
3,Cc1cccc(NC(=O)CCCCC(=O)Nc2cccc(C)c2)c1,< 0.3
4,Clc1cccc(CN2CCN(c3ncccn3)CC2)c1Cl,11.1
5,CC1CC1C(=O)Nc1nc2ccc(Cl)cc2s1 (centres undefined),0.6
6,CC(OC(=O)c1cccs1)C(=O)NC1CC1 (centres undefined),> 35.9
7,Cc1cc(-c2cccc(Br)c2)c(C#N)c(N)n1,3.1
8,O=C(O)c1ccc(S(=O)(=O)N2CCN(c3ccccn3)CC2)cc1,> 52.1
9,O=C(Nc1nnc(CCN2CCCCC2)s1)c1ccccc1Cl,> 52.6
10,CN(C(=O)C1CCCCN1S(=O)(=O)c1ccccc1)c1ccccc1 (centres undefined),> 53.8
11,CN1CCCC(OC(=O)c2ccc(C(C)(C)C)cc2)C1.Cl (centres undefined),> 46.8
12,CCc1ccc(-c2csc3nc[nH]c(=O)c23)cc1,12
13,CCC(C)(C)C(=O)Nc1cccc(Cl)c1C,> 36
14,O=C(NC1=NCCS1)C1CC(=O)N(c2ccc(Cl)cc2)C1 (centres undefined),> 48.6
15,COc1ccc(C2=CSC3=NCCN23)cc1[N+](=O)[O-],40.2
16,CN1C(=O)NC(c2cccc(F)c2)C2=C1CC(C)(C)CC2=O (centres undefined),> 45.4
17,CC(OC(=O)[C@@H](NC(=O)c1ccco1)C(C)C)C(=O)Nc1ncc(Cl)cc1Cl (some centres undefined),> 64.2
18,Cc1ccc(SCc2ccc(C(=O)N3CCCC3)cc2)cc1,31
19,Cc1ccc(S(=O)(=O)Nc2ccc(Oc3cccnc3)nc2)cc1,16.8
20,O=C(c1ccc(F)cc1)C1CCN(C(=O)c2ccccc2)CC1,> 46.7
21,Nc1nc(NCCO)nc(N2CCCCCC2)c1[N+](=O)[O-],> 44.4
22,Cc1ccc(SCC(=O)NC(=O)NCCC(C)C)c(C)c1,1.4

row,Structure (SMILES),solubility kinetic [µg/mL]
1,Cc1ccc(C(=O)NCCN2CCOCC2)cc1[N+](=O)[O-],> 44
2,Cc1ccn2c(C(=O)NN=C3CCCCCCC3)c(C)nc2c1,> 46.9
3,CCOC(=O)C1CCN(C(=S)NC(=O)c2cccs2)CC1,> 49
4,CP(=O)(Nc1ccccc1)C(Cl)(Cl)Cl (centres undefined),> 40.9
5,O=C1CSC(=Nc2ccc(Cl)cc2)N1,33.7
6,O=C(CSc1ncnc2sccc12)N1CCCCC1,> 44
7,Cc1ccc(-c2ccc(OC(=O)c3ccc(=O)[nH]c3)c(C)c2)cc1,< 0.7
8,CCCc1cc(=O)oc2cc(OCC(=O)N3CCOCC3)c(Cl)cc12,3.8
9,Cc1ccc(NC2CCCN(C(=O)c3cccnc3)C2)cc1C (centres undefined),> 46.4
10,O=C(c1ccccc1O)N1CCOCC1,30.5
11,O=c1c2ccccc2nc(Cc2ccccc2)n1-c1ccccc1,39.5
12,CCn1c(NCCO)nc2c(c1=O)C(C)(CC)Cc1ccccc1-2 (centres undefined),12.8
13,Cc1nc(N2CCN(C)CC2)c2c3c(sc2n1)CCCC3,41.4
14,COc1cccc2c1Oc1cc([N+](=O)[O-])cc(N(C)C(C)=O)c1C=C2,38.2
15,CSc1cccc(NS(=O)(=O)c2cn(C)cn2)c1,14.2
16,CC(=O)Nc1c(O)nc(C)[nH]c1=O,> 27.5
17,CCOC(=O)C(=CNc1ccc(OC)cc1[N+](=O)[O-])C(=O)OCC,0.9
18,O=C(CS(=O)(=O)c1ccccc1)Nc1ccccn1,> 41.4
19,N#Cc1ccc(OCC(=O)OCC(=O)NC2CC2)cc1,> 41.1
20,O=C(CO/N=C/c1ccc(OC(F)F)cc1)NC1CCCCC1,6.7
